For assay [1], the target named is T1, Replicative DNA helicase DnaB (Mycobacterium tuberculosis, UniProt P9WMR3).
T1 sequence (P9WMR3 whole entry): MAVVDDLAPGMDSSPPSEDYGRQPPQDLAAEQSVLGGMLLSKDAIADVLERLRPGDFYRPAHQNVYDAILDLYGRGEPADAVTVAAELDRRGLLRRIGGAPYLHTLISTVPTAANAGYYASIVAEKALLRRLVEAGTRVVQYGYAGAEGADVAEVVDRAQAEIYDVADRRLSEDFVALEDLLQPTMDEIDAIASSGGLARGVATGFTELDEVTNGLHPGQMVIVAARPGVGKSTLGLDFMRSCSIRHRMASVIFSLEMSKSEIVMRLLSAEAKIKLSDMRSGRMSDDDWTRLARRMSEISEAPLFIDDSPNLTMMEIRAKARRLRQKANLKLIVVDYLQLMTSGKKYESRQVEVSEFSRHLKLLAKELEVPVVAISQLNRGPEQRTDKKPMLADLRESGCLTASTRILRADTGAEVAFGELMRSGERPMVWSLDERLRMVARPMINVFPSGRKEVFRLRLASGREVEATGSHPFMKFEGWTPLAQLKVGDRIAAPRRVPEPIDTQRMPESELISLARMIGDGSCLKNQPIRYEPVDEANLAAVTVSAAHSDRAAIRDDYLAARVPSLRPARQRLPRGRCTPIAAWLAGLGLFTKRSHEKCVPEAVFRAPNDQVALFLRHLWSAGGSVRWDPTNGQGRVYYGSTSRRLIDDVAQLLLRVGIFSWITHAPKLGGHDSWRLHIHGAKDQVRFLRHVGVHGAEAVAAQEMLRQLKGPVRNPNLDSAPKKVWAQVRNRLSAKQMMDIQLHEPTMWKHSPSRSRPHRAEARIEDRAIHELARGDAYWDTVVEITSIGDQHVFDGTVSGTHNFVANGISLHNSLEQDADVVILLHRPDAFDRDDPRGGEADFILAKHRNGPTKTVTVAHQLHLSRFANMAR
In words: DnaB intein splicing inhibitors, dose response, biochemical, cell-free fluorescence (AID 449749). The assay is classed as functional.

The next assay has as its target T2, Streptokinase A (Streptococcus pyogenes serotype M1, UniProt P10520).
T2 sequence (P10520 whole entry): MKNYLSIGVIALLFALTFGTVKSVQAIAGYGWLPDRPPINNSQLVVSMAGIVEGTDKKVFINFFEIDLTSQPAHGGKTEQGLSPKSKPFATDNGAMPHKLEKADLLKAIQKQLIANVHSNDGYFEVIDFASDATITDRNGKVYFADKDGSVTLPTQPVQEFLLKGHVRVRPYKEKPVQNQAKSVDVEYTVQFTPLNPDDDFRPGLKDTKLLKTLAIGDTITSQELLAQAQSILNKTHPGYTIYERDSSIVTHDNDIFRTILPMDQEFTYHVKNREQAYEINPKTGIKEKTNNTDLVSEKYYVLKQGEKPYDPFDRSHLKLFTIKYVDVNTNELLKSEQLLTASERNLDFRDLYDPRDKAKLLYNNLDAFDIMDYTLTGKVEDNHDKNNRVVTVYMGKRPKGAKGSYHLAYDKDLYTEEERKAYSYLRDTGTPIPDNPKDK
In words: S. pyogenes streptokinase expression inhibitors, potency, dose response, plasminogen activation absorbance, OD405 (AID 1914).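 Further: secreted streptokinase activity via plasminogen activation per viability signal from cell pellet.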 The assay is classed as functional, Streptococcus pyogenes M1 GAS.

Assay [2] deals with Protein kinase C delta type (Homo sapiens, UniProt Q05655). The assay is classed as functional.
Assay [3] addresses Serine/threonine-protein kinase D2 (Homo sapiens, UniProt Q9BZL6). Format: functional.
In the next assay the target is SRSF protein kinase 1 (Homo sapiens, UniProt Q96SB4). Format: functional.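 Further: measured as one member of a kinome-wide kinase profiling panel.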
The target in assay [4] is MAP kinase-activated protein kinase 5 (Homo sapiens, UniProt Q8IW41). The assay is classed as functional.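 Further: measured as one member of a kinome panel.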
Assay [5] deals with MAP kinase-activated protein kinase 2 (Homo sapiens, UniProt P49137). Format: functional.
Assay [6] addresses Calcium/calmodulin-dependent protein kinase type II subunit delta (Homo sapiens, UniProt Q13557). Format: functional.
Assay [7] deals with Casein kinase I isoform gamma-1 (Homo sapiens, UniProt Q9HCP0). The assay is classed as functional.
The target in assay [8] is Tyrosine-protein kinase ITK/TSK (Homo sapiens, UniProt Q08881). The assay is classed as functional.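 Further: affinity for ITK measured as one member of a broad kinase panel profiling binding across the kinome.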
The target in assay [9] is Serine/threonine-protein kinase N2 (Homo sapiens, UniProt Q16513). Format: functional.
Serine/threonine-protein kinase N2, sequence (Q16513 whole entry): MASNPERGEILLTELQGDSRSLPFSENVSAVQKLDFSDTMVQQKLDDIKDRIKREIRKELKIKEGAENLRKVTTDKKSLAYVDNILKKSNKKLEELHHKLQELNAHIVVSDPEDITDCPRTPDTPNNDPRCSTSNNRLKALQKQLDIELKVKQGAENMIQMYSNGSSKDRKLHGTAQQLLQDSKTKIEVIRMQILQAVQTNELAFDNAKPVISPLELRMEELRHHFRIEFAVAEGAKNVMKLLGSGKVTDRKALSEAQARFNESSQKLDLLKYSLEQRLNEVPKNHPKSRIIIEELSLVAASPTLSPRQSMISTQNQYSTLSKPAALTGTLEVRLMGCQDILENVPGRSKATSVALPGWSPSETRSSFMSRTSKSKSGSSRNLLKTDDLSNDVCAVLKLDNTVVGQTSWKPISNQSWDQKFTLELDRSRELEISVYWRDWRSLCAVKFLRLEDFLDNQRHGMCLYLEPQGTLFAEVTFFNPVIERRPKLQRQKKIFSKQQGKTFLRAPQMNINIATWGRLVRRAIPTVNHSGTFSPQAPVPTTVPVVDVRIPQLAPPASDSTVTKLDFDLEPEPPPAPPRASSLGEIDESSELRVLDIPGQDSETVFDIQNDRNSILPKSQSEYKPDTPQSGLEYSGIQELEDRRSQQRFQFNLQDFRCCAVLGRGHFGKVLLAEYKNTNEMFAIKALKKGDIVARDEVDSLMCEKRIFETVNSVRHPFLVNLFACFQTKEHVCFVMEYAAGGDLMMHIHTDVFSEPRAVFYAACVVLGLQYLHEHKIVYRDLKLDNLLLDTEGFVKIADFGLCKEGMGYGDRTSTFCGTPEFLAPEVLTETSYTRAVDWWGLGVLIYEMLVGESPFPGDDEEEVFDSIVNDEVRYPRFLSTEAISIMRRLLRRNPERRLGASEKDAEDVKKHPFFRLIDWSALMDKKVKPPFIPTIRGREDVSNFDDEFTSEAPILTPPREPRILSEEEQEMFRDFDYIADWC
Assay [10] has as its target Testis-specific serine/threonine-protein kinase 1 (Homo sapiens, UniProt Q9BXA7). Format: functional.
Assay [11] deals with MAP/microtubule affinity-regulating kinase 3 (Homo sapiens, UniProt P27448). The assay is classed as functional.
The next assay concerns the target Insulin receptor (Homo sapiens, UniProt P06213). The assay is classed as functional.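 Further: insulin receptor kinase tested as one member of a kinome-wide kinase panel.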
Assay [12] concerns the target Mitogen-activated protein kinase 13 (Homo sapiens, UniProt O15264). Format: functional.
The target of assay [13] is Serine/threonine-protein kinase pim-3 (Homo sapiens, UniProt Q86V86). The assay is classed as functional.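 Further: value obtained as one member of a broad kinase panel profiling effort.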
In assay [14] the target is Non-receptor tyrosine-protein kinase TYK2 (Homo sapiens, UniProt P29597). The assay is classed as functional.
Non-receptor tyrosine-protein kinase TYK2, sequence (P29597 whole entry): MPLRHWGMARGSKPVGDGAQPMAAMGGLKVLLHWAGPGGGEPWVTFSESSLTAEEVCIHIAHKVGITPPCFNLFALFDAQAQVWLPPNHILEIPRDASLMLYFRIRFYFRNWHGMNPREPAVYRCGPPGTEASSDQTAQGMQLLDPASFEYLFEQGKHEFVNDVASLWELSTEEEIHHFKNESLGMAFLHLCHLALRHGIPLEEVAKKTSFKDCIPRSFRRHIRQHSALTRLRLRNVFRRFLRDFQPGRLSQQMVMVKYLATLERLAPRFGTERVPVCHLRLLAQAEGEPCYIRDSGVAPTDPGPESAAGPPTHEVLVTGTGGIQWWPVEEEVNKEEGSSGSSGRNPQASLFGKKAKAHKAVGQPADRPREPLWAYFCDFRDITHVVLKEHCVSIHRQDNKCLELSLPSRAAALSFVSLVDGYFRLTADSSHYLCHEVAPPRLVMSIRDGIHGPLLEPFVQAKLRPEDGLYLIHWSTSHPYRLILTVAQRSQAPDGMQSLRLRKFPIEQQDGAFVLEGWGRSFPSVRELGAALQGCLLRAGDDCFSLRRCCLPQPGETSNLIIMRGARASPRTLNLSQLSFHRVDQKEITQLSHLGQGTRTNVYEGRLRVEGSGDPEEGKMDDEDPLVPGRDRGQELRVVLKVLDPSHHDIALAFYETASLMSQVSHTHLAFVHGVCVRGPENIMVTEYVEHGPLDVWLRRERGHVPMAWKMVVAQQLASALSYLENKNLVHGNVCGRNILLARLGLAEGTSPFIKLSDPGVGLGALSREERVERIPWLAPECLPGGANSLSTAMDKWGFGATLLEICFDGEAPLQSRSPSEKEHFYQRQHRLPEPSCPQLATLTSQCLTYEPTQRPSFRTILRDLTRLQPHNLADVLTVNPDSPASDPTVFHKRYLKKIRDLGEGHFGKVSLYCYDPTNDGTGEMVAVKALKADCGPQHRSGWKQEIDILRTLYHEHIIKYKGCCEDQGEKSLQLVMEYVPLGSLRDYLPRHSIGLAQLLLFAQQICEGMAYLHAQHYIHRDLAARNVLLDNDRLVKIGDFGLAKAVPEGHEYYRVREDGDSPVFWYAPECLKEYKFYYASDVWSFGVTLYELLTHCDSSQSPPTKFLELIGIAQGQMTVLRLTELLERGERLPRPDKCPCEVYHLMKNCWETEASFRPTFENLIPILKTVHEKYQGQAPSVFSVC
For assay [15], the target named is Platelet-derived growth factor receptor beta (Homo sapiens, UniProt P09619). The assay is classed as functional.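 Further: value comes from a kinome panel, with PDGFRB tested as one panel member.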
The target of assay [16] is Casein kinase I isoform delta (Homo sapiens, UniProt P48730). Format: functional.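 Further: measured as one member (CSNK1D) of a kinome panel.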
Casein kinase I isoform delta, sequence (P48730 whole entry, canonical isoform): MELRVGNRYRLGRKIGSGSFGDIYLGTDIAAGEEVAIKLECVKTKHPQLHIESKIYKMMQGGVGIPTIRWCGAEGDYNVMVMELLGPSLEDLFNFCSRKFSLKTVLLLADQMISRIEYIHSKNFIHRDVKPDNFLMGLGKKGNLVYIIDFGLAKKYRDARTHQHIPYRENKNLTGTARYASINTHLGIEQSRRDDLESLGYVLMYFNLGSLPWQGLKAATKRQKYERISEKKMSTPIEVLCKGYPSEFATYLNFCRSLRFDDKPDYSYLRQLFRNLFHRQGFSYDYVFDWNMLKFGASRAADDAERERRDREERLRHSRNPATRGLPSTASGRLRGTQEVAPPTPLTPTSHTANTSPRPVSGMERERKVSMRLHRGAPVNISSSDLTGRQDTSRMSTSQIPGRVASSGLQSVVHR
In assay [17] the target is Protein kinase C iota type (Homo sapiens, UniProt P41743). Format: functional.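 Further: measured within a kinome-wide kinase panel, PRKCI as panel member.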
The target in assay [18] is Maternal embryonic leucine zipper kinase (Homo sapiens, UniProt Q14680). Format: functional.
The target in assay [19] is RAC-alpha serine/threonine-protein kinase (Homo sapiens, UniProt P31749). Format: functional.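 Further: AKT1 affinity measured as one member of a kinome-wide kinase profiling panel.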
Assay [20] concerns the target Mitogen-activated protein kinase kinase kinase kinase 5 (Homo sapiens, UniProt Q9Y4K4). Format: functional.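 Further: measured as one member of a kinome-spanning kinase panel.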
For assay [21], the target named is Calcium/calmodulin-dependent protein kinase type 1 (Homo sapiens, UniProt Q14012). The assay is classed as functional.
Calcium/calmodulin-dependent protein kinase type 1, sequence (Q14012 whole entry): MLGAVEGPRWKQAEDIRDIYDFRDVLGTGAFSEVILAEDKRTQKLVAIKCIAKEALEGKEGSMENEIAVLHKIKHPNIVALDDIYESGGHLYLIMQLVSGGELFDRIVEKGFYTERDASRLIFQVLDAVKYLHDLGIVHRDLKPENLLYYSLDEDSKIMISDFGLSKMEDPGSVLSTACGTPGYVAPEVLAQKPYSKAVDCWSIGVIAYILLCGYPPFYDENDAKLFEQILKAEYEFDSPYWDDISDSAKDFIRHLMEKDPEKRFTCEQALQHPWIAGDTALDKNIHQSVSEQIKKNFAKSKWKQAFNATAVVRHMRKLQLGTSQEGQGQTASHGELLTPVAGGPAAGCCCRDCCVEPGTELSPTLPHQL
Assay [22] concerns the target Serine/threonine-protein kinase pim-2 (Homo sapiens, UniProt Q9P1W9). Format: functional.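 Further: value comes from a broad kinase panel profiling study in which PIM2 was one of the panel members.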
For assay [23], the target named is Receptor tyrosine-protein kinase erbB-4 (Homo sapiens, UniProt Q15303). The assay is classed as functional.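 Further: ERBB4 member of a kinome-wide kinase profiling panel.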
The target of assay [24] is Tyrosine-protein kinase receptor UFO (Homo sapiens, UniProt P30530). Format: functional.
Tyrosine-protein kinase receptor UFO, sequence (P30530 whole entry): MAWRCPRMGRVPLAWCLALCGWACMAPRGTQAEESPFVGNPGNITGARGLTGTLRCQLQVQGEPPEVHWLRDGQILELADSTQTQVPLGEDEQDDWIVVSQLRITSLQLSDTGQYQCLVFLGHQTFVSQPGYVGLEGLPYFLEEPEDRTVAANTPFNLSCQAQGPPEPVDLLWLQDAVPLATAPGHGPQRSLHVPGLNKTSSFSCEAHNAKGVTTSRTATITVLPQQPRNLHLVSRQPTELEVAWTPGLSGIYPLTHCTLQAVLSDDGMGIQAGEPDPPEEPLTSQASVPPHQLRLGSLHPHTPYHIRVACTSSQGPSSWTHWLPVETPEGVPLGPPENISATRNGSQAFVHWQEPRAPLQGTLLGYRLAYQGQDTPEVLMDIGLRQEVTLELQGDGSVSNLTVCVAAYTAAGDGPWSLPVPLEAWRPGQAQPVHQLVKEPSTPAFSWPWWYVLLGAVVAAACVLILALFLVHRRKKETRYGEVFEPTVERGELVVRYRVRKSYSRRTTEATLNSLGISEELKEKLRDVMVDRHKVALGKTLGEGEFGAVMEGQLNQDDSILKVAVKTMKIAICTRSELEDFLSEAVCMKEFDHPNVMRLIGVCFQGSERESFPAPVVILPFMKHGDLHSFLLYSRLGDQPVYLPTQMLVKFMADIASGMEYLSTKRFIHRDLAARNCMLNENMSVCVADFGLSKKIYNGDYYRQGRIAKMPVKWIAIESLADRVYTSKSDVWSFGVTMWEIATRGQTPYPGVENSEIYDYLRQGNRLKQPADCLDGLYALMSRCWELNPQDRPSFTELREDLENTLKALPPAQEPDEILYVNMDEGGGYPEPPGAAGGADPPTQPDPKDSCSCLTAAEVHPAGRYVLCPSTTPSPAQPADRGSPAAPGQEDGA

The structures appear in SMILES notation. Activity calls are given as the source filed them.

Calcium/calmodulin-dependent protein kinase type II subunit delta, sequence (Q13557 whole entry, canonical isoform): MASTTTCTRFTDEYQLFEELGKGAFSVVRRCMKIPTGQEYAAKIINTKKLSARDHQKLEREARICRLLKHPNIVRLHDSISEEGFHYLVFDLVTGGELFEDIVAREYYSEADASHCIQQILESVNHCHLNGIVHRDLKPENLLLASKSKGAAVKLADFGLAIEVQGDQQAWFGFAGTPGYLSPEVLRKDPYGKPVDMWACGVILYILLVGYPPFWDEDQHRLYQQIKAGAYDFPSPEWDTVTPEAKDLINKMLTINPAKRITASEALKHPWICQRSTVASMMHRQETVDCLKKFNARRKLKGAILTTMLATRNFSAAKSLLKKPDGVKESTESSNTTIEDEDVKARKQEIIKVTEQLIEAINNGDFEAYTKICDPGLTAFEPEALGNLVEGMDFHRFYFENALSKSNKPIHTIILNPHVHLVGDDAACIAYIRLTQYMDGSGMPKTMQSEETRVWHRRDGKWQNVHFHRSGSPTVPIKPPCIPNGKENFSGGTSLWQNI
Serine/threonine-protein kinase pim-2, sequence (Q9P1W9 whole entry): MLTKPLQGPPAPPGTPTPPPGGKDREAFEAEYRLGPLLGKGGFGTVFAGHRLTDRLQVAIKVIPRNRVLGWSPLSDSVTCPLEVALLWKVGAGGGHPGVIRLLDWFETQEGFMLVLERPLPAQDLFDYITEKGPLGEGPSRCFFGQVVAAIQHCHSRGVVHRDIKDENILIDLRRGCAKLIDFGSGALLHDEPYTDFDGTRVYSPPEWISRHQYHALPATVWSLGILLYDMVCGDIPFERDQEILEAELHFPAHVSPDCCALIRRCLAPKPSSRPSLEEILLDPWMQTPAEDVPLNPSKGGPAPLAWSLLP
Testis-specific serine/threonine-protein kinase 1, sequence (Q9BXA7 whole entry): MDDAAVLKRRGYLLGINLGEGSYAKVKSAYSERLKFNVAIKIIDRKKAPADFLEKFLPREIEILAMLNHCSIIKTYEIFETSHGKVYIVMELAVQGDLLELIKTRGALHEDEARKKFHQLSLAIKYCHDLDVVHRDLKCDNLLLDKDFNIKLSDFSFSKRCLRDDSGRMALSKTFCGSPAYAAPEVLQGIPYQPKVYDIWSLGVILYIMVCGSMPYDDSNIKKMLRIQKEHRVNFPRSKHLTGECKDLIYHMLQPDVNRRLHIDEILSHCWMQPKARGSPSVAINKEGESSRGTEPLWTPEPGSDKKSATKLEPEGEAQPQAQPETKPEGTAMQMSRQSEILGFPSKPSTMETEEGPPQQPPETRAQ

The AC50 is the concentration at which the activity in the assay is half-maximal. `Cc1ccc(NC2=C(NCCO)C(=O)c3ccccc3C2=O)cc1`: in [1], the AC50 was 40300 nM (active).

The EC50 is the midpoint of the concentration-response curve. Low readings indicate higher potency in that assay, high ones lower potency in that assay. As to `CC(/C=C1\SC(=S)N(NS(=O)(=O)c2ccc(C)cc2)C1=O)=C\c1ccccc1`, the EC50 on Streptokinase A is > 150000 nM (not active).

The Ki is the dissociation constant of the complex between target and ligand, obtained from inhibition or displacement. By pKi is commonly meant the Ki on a negative log10 scale, so that one unit is a factor of ten. Regarding `CN1CCC(c2c(O)cc(O)c3c(=O)cc(-c4ccccc4Cl)oc23)C(O)C1` (centres undefined), the Ki in assay [2] is 1260 nM (active); in assay [3], 1260 nM (active); on SRSF protein kinase 1, 501 nM (active); in assay [4], > 1580 nM (inactive); in assay [5] it was > 7940 nM (inactive); in assay [6], 2000 nM (active). Besides, the Ki in [7] is > 6310 nM (inactive); in [8], > 1580 nM (inactive); in assay [9] it was 5010 nM (active); in assay [10], > 1580 nM (inactive); in assay [11], > 6310 nM (inactive); on Insulin receptor, > 5010 nM (inactive). Further, the Ki in [12] is 501 nM (active); in assay [13], 1260 nM (active); in [14], > 2000 nM (inactive); in assay [15] it was > 2000 nM (inactive); in assay [16] it was > 7940 nM (inactive); in assay [17] it was > 5010 nM (inactive). Moreover, the Ki was > 2000 nM (inactive) in [18]; > 7940 nM (inactive) in [19]; 1000 nM (active) in [20]; > 3160 nM (inactive) in [21]; 1000 nM (active) in [22]; > 3980 nM (inactive) in assay [23]. Moreover, in [24], the Ki was 1000 nM (active). Further, the pKi worked out at 5.7 in assay [6] and 6 in [24].

For the origin of these results see ChEMBL document CHEMBL1201862, “PubChem BioAssay data set” (2004).
